Results as given in patent publication US9068018B2, “Methods of using voltage-gated Hv1 proton channels to detect changes in intracellular pH” (Children's Medical Center Corporation, priority 2006, dated 2015).
Residue numbers refer to the chain shown, from its start.

Tests used:
[1] = test system: human airway epithelial cultures; settings: background description; cited from earlier work
[2] = molecular target: T1, wt GFP-hHv1 (Homo sapiens, UniProt Q96D96); experiment: Patch-clamp currents of wt GFP-hHv1 in transfected HEK cells; assay type: cell-based; settings: wild-type channel
T1 construct: expressed in transfected cells; host or cells: HEK-293 cell clone HM1 (stably expresses the human muscarinic M1 receptor)
T1 sequence (Q96D96 1-273): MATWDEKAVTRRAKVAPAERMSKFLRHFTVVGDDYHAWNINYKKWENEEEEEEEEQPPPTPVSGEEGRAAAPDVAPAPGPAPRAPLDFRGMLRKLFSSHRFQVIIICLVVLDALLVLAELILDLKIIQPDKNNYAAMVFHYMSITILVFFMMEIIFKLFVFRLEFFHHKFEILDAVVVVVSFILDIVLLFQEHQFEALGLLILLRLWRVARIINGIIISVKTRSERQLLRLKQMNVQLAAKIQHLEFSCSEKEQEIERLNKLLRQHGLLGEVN

[3] = molecular target: T2, GFP-hHv1 G199C mutant (Homo sapiens, UniProt Q96D96, G199C); experiment: Patch-clamp currents of GFP-hHv1 G199C mutant in transfected HEK cells; assay type: cell-based; settings: G199C mutant (engineered Cys at residue 199); FIG. 3
T2 construct: expressed in transfected cells; host or cells: HEK-293 cell clone HM1 (stably expresses the human muscarinic M1 receptor)
T2 sequence (Q96D96 1-273 G199C): T1 sequence (Q96D96 1-273) with G199C

[4] = test system: T lymphocytes; settings: one day after stimulation; cited from earlier work

| Compound | effect on acid secretion across the epithelium [1] | further results |
| --- | --- | --- |
| [Cl-].[Cl-].[Zn+2] [ZnCl2] | inhibited |  |
| NCCc1c[nH]cn1 [histamine] | stimulated |  |
| N=C(N)NC(=O)c1nc(Cl)c(N)nc1N [amiloride] | not |  |
| C[N+](C)(C)CCSS(C)(=O)=O [MTSET, 2-(trimethylammonium)methanethiosulfonate] |  | effect on wt GFP-hHv1 currents [2]: little effect; effect on hHv1 currents [3]: modulate hHv1 currents |
| Nc1ncnc2c1ncn2[C@@H]1O[C@H](COP(=O)(O)OP(=O)(O)OP(=O)(O)O)[C@@H](O)[C@H]1O [ATP] | stimulated |  |
| CO/C1=C\C(C)=C\[C@@H](C)[C@@H](O)[C@@H](C)C/C(C)=C/C=C/[C@H](OC)[C@@H]([C@@H](C)[C@@H](O)[C@H](C)[C@@]2(O)C[C@@H](O)[C@H](C)[C@@H](C(C)C)O2)OC1=O [bafilomycin A1] | not |  |
| Cc1nc2c(OCc3ccccc3)cccn2c1CC#N [Sch-28080] | not |  |
| C[C@@H]1O[C@@H](O[C@H]2C[C@@H](O)[C@]3(CO)[C@H]4[C@H](O)C[C@]5(C)[C@@H](C6=CC(=O)OC6)CC[C@]5(O)[C@@H]4CC[C@]3(O)C2)[C@H](O)[C@H](O)[C@H]1O [ouabain] | not |  |
| CCCCCCCCCCCCCC(=O)O[C@@H]1[C@@H](C)[C@@]2(O)[C@@H](C=C(CO)C[C@]3(O)C(=O)C(C)=C[C@@H]23)[C@@H]2C(C)(C)[C@]12OC(C)=O [PMA, phorbol 12-myristate 13-acetate] |  | increase of H+ currents in T lymphocytes [4]: 13 fold |
